Like-named read-outs stand apart in the source and are kept apart here.
Assays:
AlinCSP1 = AlinCSP1 (Adelphocoris lineolatus, UniProt J7EJ71); test: biochemical; type: binding
Experimental: (§1) Fluorescence binding assays were performed on an F-380 fluorescence spectrophotometer (Tianjin, China) in a 1 cm light path quartz cuvette. The slit width used for excitation and emission was both 10 nm. The fluorescent probe N-phenyl-1-naphthylamine (1-NPN) was dissolved in methanol with a 1 mM stock solution. 1-NPN was excited at 337 nm and emission spectra were recorded between 390 nm and 530 nm.
(§2) All values reported were obtained from three independent measurements.
(§3) For determining binding constants, the intensity values corresponding to the maximum fluorescence emission were plotted against free ligand concentration. Bound ligand was evaluated from the values of fluorescence intensity assuming the protein was 100% active, with a stoichiometry of 1∶1 protein:ligand at saturation. The curves were linearized using Scatchard Plot.

AlinCSP2 = AlinCSP2 (Adelphocoris lineolatus, UniProt E7BLG5); test: biochemical; type: binding
Chain of AlinCSP2 (E7BLG5 entry or part of it): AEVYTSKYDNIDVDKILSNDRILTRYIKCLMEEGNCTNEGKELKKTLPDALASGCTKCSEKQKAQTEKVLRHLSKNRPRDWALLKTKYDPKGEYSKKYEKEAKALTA
Experimental: as §1, §2, §3

AlinCSP3 = AlinCSP3 (Adelphocoris lineolatus, UniProt E7BLG4); test: biochemical; type: binding
Chain of AlinCSP3 (E7BLG4 entry or part of it): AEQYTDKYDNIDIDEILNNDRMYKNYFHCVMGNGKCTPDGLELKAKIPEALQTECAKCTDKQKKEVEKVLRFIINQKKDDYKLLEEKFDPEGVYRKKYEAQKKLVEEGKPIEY
Experimental: as §1, §2, §3

A. lineolatus antennae = test: Electroantennogram (EAG) recordings; design: species or system Adelphocoris lineolatus; settings: normalized to 2-octanone; for EAG response, male versus female antennae: Student t-test between sexes; for EAG response in words: male and female adult antennae, 10% (v/v) in paraffin oil, good ligand = more than 50% of 2-octanone response
From the text: Electrophysiological (EAG) recordings from each sex of adult individuals were made using Ag-AgCl glass pipette electrodes filled with 3 M KCl solution [69], [70]. The insects were anaesthetized by chilling, the antenna was amputated at the base and the tip of the antenna was cut off. The excised antenna was mounted between the electrodes by one teardrop of Spectra R360 electrically conductive gel (Syntech, Netherlands). The base of the antenna was connected to the reference electrode, while the terminal of tip-cut off antenna was connected to the recording electrode. An air stimulus controller CS-55 (Syntech, Netherlands) was used for air and chemical stimulants delivery with a constant flow of 10 ml/second flowed continuously over the antenna through the open end of the glass tube, which was positioned 1 cm from the antenna.
Twenty microliters of tested chemicals (100 µl/ml, 10% (v/v) dilution in paraffin oil except the hexadecanoic acid dissolved in hexane with 100 µg/ml) were applied to filter paper strips (1.5 cm×4 cm, Whatman No.1), and the solvent was allowed to evaporate for 30 sec before the paper strip was inserted into the glass Pasteur pipette cartridge (10 cm long, Fisher Scientific, Pittsburgh, Pennsylvania, USA). The chemicals were tested randomly, stimulus duration time was 0.5 second and an interval of at least 30 seconds was taken between stimulations for antennal recovery. Chemical odorants used for the EAG recordings are the same as used in the binding assays. […] The paraffin oil (Fluka, Buchs, Switzerland) was used to dissolve the chemicals and treated as control compound [71]. Each chemical was tested against six individual male and female antennae, and each antenna was tested three times. The signals were passed through a high impedance amplifier (CS-05 model, Syntech, the Netherlands), EAG responses were initially measured in millivolts (peak height of depolarization) and then converted to normalized responses by the Syntech EAG 2000 program (Syntech, the Netherlands). Response to the solvent control was subtracted from all normalized response and the normalized EAG responses were expressed as a percentage to the reference compound response. All results are presented as mean (±SE) normalized EAG responses. EAG responses between male and female individuals were compared with the Student t-test using SAS software.

[1] = u.d. = KD not calculated because IC50>50 µM, read-out: KD (µM) AlinCSP1, given as u.d.
[2] = 1-NPN and protein at 2 µM, 50 mM Tris-HCl pH 7.4, KD calculated from IC50, mean of three measurements, read-out: KD (µM) AlinCSP2
[3] = u.d. = KD not calculated because IC50>50 µM, read-out: KD (µM) AlinCSP3, given as u.d.
[4] = KD (µM) AlinCSP1, 1-NPN and protein at 2 µM, 50 mM Tris-HCl pH 7.4, KD calculated from IC50, mean of three measurements
[5] = KD (µM) AlinCSP2, 1-NPN and protein at 2 µM, 50 mM Tris-HCl pH 7.4, KD calculated from IC50, mean of three measurements
[6] = KD (µM) AlinCSP3, 1-NPN and protein at 2 µM, 50 mM Tris-HCl pH 7.4, KD calculated from IC50, mean of three measurements
[7] = 1-NPN and protein at 2 µM, 50 mM Tris-HCl pH 7.4, KD calculated from IC50, mean of three measurements, read-out: KD (µM) AlinCSP3
[8] = u.d. = KD not calculated because IC50>50 µM, read-out: KD (µM) AlinCSP2, given as u.d.
[9] = 1-NPN and protein at 2 µM, 50 mM Tris-HCl pH 7.4, KD calculated from IC50, mean of three measurements, read-out: KD (µM) AlinCSP1

Chain of AlinCSP1 (J7EJ71 entry or part of it): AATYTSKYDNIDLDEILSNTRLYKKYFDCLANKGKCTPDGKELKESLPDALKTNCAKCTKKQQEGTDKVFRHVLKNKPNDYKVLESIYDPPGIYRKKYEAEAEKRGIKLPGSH

`CCCCCCCCCCCCCCO` [Tetradecanol] gave a Kd (AlinCSP1; [1]) of over 50 µM, a Kd (AlinCSP2; [2]) of 35.8 ± 3.01 µM and a Kd (AlinCSP3; [3]) of over 50 µM.
`C=CC(=O)OCCCC` [Butyl acrylate] gave a Kd (AlinCSP1; [4]) of 38.5 ± 1.69 µM, a Kd (AlinCSP2; [5]) of 28.1 ± 2.37 µM and a Kd (AlinCSP3; [6]) of 40.2 ± 2.88 µM.
`CCCCCCCCCC=O` [Decanal] showed a Kd (AlinCSP1; [1]) of over 50 µM, a Kd (AlinCSP2; [2]) of 45.9 ± 1.71 µM and a Kd (AlinCSP3; [7]) of 42.3 ± 2.76 µM.
`CCCCCCCCC` [Nonane] was tested, and the Kd (AlinCSP1; [1]) was over 50 µM, the Kd (AlinCSP2; [8]) was over 50 µM and the Kd (AlinCSP3; [3]) was over 50 µM.
With `CCCCCCCCCC(C)O` (stereo not drawn) [2-Undecanol] the Kd (AlinCSP1; [1]) was over 50 µM, the Kd (AlinCSP2; [8]) was over 50 µM and the Kd (AlinCSP3; [3]) was over 50 µM.
In the case of `COC(=O)Cc1ccccc1` [Methyl phenylacetate], the Kd (AlinCSP1; [4]) is reported as 32.1 ± 1.85 µM, the Kd (AlinCSP2; [5]) is reported as 30.6 ± 1.92 µM and the Kd (AlinCSP3; [6]) is reported as 22.2 ± 0.87 µM.
In the case of `CCCCC(C)=O` [2-Hexanone], the Kd (AlinCSP1; [4]) is reported as 19.5 ± 1.73 µM, the Kd (AlinCSP2; [5]) is reported as 20.4 ± 1.82 µM and the Kd (AlinCSP3; [6]) is reported as 22.5 ± 1.88 µM. For the same molecule, the “EAG response, male versus female antennae” value (A. lineolatus antennae) was “significantly higher EAG responses from male antennae than from female antennae”.
`CCCCC=O` [Valeraldehyde] showed a Kd (AlinCSP1; [9]) of 17.6 ± 2.54 µM, a Kd (AlinCSP2; [2]) of 13.4 ± 2.41 µM and a Kd (AlinCSP3; [7]) of 11.2 ± 1.52 µM. For the same molecule, the “EAG response in words” value (A. lineolatus antennae) was “elicited significant antennal responses from both male and female”.
`CCCCCCC(C)O` (stereo not drawn) [2-Octanol] showed a Kd (AlinCSP1; [1]) of over 50 µM, a Kd (AlinCSP2; [2]) of 39.5 ± 2.11 µM and a Kd (AlinCSP3; [3]) of over 50 µM.
Work on `CC/C=C\CCO` [(Z)-3-Hexen-1-ol] yielded a Kd (AlinCSP1; [4]) of 12.5 ± 2.32 µM, a Kd (AlinCSP2; [5]) of 15.1 ± 1.79 µM and a Kd (AlinCSP3; [6]) of 16.3 ± 1.98 µM. For the same molecule, the “EAG response in words” value (A. lineolatus antennae) was “elicited significant antennal responses from both male and female”.
For `C/C1=C\CC/C(C)=C/CC(C)(C)/C=C/C1` [α-Humulene], the Kd (AlinCSP1; [9]) was 9.96 ± 0.89 µM, the “binding to AlinCSP2 in words” value (AlinCSP2) was “failed to bind with AlinCSP2” and the Kd (AlinCSP2; [8]) was over 50 µM. The Kd (AlinCSP3; [7]) was 8.94 ± 2.97 µM and the “EAG response in words” value (A. lineolatus antennae) was “no notable EAG response”.
For `CC/C=C\CCOC(C)=O` [(Z)-3-Hexenyl acetate], the Kd (AlinCSP1; [9]) was 7.37 ± 2.49 µM, the Kd (AlinCSP2; [2]) was 15.8 ± 1.68 µM and the Kd (AlinCSP3; [7]) was 12.2 ± 1.82 µM. For the same molecule, the “EAG response, male versus female antennae” value (A. lineolatus antennae) was “significantly higher EAG responses from female antennae than from male antennae” and the “EAG response in words” value (A. lineolatus antennae) was “only elicited a high EAG response in the female”.
`Cc1ccc(C=O)cc1C` [3,4-Dimethyl-benzaldehe, 3,4-Dimethyl-benzaldehyde] was tested, and the Kd (AlinCSP1; [1]) was over 50 µM, the Kd (AlinCSP2; [8]) was over 50 µM and the Kd (AlinCSP3; [3]) was over 50 µM. For the same molecule, the “EAG response, male versus female antennae” value (A. lineolatus antennae) was “significantly higher EAG responses from female antennae than from male antennae”.
In the case of `CCCCCCCCCCCC` [Dodecane], the Kd (AlinCSP1; [1]) is reported as over 50 µM, the Kd (AlinCSP2; [8]) is reported as over 50 µM and the Kd (AlinCSP3; [3]) is reported as over 50 µM.
With `CC(C)=CCCC(C)CCO` (stereo not drawn) [(-)-β-Citronellol] the Kd (AlinCSP1; [1]) was over 50 µM, the Kd (AlinCSP2; [8]) was over 50 µM and the Kd (AlinCSP3; [7]) was 43.5 ± 0.99 µM.
For `CCCCCCCC(C)=O` [2-Nonanone], the Kd (AlinCSP1; [1]) was over 50 µM, the Kd (AlinCSP2; [2]) was 42.4 ± 2.21 µM and the Kd (AlinCSP3; [3]) was over 50 µM.
`C=CC(C)(O)CCC=C(C)C` (stereo not drawn) [Linalool] showed a Kd (AlinCSP1; KD (µM) AlinCSP1, given as u.d., u.d. = KD not calculated because IC50>50 µM) of over 50 µM, a Kd (AlinCSP2; [5]) of 46.2 ± 2.35 µM and a Kd (AlinCSP3; KD (µM) AlinCSP3, given as u.d., u.d. = KD not calculated because IC50>50 µM) of over 50 µM.
For `CCCCC` [Pentane], the Kd (AlinCSP1; [9]) was 42.2 ± 1.95 µM, the Kd (AlinCSP2; [2]) was 39.5 ± 2.54 µM and the Kd (AlinCSP3; [7]) was 35.6 ± 2.61 µM.
With `COC(=O)c1ccccc1O` [Methyl salicylate] the Kd (AlinCSP1; [4]) was 8.67 ± 1.92 µM, the Kd (AlinCSP2; [5]) was 13.3 ± 1.71 µM and the Kd (AlinCSP3; [6]) was 11.8 ± 1.89 µM. The “EAG response in words” value (A. lineolatus antennae) was “failed to elicit high EAG response”.
`CCOC(=O)Cc1ccccc1` [Ethyl phenylacetate] showed a Kd (AlinCSP1; [4]) of 27.3 ± 2.02 µM, a Kd (AlinCSP2; [5]) of 25.3 ± 1.98 µM and a Kd (AlinCSP3; [6]) of 24.4 ± 1.32 µM.
Molecule `CCCCCCOC(=O)CCC` [Hexyl butyrate] has a Kd (AlinCSP1; [9]) of 46.8 ± 1.85 µM, a Kd (AlinCSP2; [8]) of over 50 µM and a Kd (AlinCSP3; [3]) of over 50 µM.
In the case of `C=C1CC/C=C(\C)CC[C@@H]2[C@@H]1CC2(C)C` [β-Caryophyllene], the Kd (AlinCSP1; [4]) is reported as 9.22 ± 1.08 µM, the “binding to AlinCSP2 in words” value (AlinCSP2) is reported as “failed to bind with AlinCSP2” and the Kd (AlinCSP2; KD (µM) AlinCSP2, given as u.d., u.d. = KD not calculated because IC50>50 µM) is reported as over 50 µM. For the same molecule, the Kd (AlinCSP3; [6]) was 12.3 ± 2.42 µM and the “EAG response in words” value (A. lineolatus antennae) was “no notable EAG response”.
`CCC/C=C/C=O` [(E)-2-Hexen-1-al] gave a Kd (AlinCSP1; [4]) of 11.3 ± 1.07 µM, a Kd (AlinCSP2; [5]) of 13.2 ± 2.05 µM and a Kd (AlinCSP3; [6]) of 14.5 ± 2.59 µM. For the same molecule, the “EAG response in words” value (A. lineolatus antennae) was “elicited significant antennal responses from both male and female”.
